Patent publication US20240398843A1, “GLYCYRRHIZIN-BRANCHED POLYETHYLENE GLYCOL CONJUGATE FOR TREATING CANCER” (IUCF-HYU (INDUSTRY-UNIVERSITY COOPERATION FOUNDATION …, priority 2021, published 2024)

Experiments:
[1] = Dynamic light scattering (DLS) particle size, incl. shielding effect check in 10% FBS DW; format: physicochemical; details: for DLS size, first listed population / DLS size, second listed population / proportion of first listed population / proportion of second listed population: 10% FBS DW
Excerpt: When bPEG was conjugated, a stabilized nano size of approximately 300 nm was observed (FIG. 6).

[2] = tested on: red blood cells; assay: In vitro blood hemolysis; details: 0.2 to 1 mg/mL, 37° C., 1 hour
Description: 1 to 2 mL of blood was put into a 2 mL tube, filled with PBS, and centrifuged at 3,000 rpm for 2 minutes. The supernatant was removed, the vial was filled again with PBS, and centrifuged, and this process was repeated 2 to 3 times. 20 μL of a red blood pellet was dispensed into a 1.5 mL tube. DW, for example, 80% DW/PBS, 60% DW/PBS, 40% DW/PBS, 20% DW/PBS, or PBS was added to a control without separate material treatment, and the volumes was adjusted to 1.5 mL. In the experimental group, 1 mL of a bPEG-GL (3.6 mg/mL, 2.88 mg/mL, 2.16 mg/mL, 1.44 mg/mL, 0.72 mg/mL; GL equivalent concentration) solution was added to each tube.
The tubes were left in a 37° C. water bath for 1 hour and then centrifuged at 800 rpm for 5 minutes.

[3] = tested on: HepG2 cells; assay: Wound healing assay; format: cell-based; details: HepG2, 500 μg/mL GL or GL equivalent, 24-hour culture
Description: HepG2 cells were seeded in a 6-well plate at 3×10^5 cells/well and cultured until 100% confluence. When the well was filled with cells, a wound was made by drawing a line in the center of the well using a 200 μL micropipette tip. The cells were washed with PBS, and treated with each of 500 μg/mL of GL, 500 μg/mL of bPEG-GL, which is a GL equivalent concentration, and a bPEG solution at the same amount of bPEG that dissolved in 500 μg/mL of bPEG-GL. After 24-hour culture, the width of the wound was confirmed. […] The cell migration rate was calculated according to Equation 1.
Rate of cell migration(RM)=(Wi−Wf)/t [Equation 1] • (Wi=initial wound width, Wf=final wound width, t=duration of migration)

[4] = tested on: HepG2 cells; assay: Cell cycle arrest assay (PI, FACS); format: cell-based; details: 24 hours
Description: HepG2 cells were seeded in a 6-well plate at 4×10^5 cells/well and cultured (3 wells for each treated group). The cells were classified into a control (con; untreated group), GL-treated groups (250 and 500 μg/mL), bPEG-GL-treated groups (GL equi 250 and 500 μg/mL), and a bPEG (GL equi 500 μg/mL)-treated group, treated with corresponding materials, and cultured for 24 hours. After the cells were recovered and counted, 1×10^6 cells were obtained for each experimental group. The cells were washed with PBS and fixed with 70% ethanol (cell membrane disruption). The cells were treated with 50 μL of ribonuclease A (100 μg/mL) and 200 μL of propidium iodide (PI; 50 μg/mL). The cells were washed and suspended in 500 μL of PBS, and then FACS was performed.

[5] = tested on: HepG2 cells; assay: Apoptosis assay (annexin V/PI, FACS); format: cell-based; details: 24 hours
Description: HepG2 cells were seeded in a 60 mm well plate at 2×10^5 cells/well and cultured (3 wells for each treatment group). The cells were classified as follows, treated with corresponding materials, and cultured for 24 hours: Control (con; untreated group), GL-treated groups (250, 500, and 1,000 μg/mL), bPEG-GL-treated groups (900, 1,800, and 3,600 μg/mL; GL equivalent concentrations of 250, 500, and 1,000 μg/mL), and bPEG-treated groups (1,300 and 2,600 μg/mL; bPEG-GL equivalent concentrations of 1,800 and 3,600 μg/mL).
After the culture, the medium was aspirated to remove the treated material, and the cells were washed twice with a cell-staining buffer. After the cells were recovered and counted, 5×10^5 cells were obtained for each experimental group. The cell culture solution was centrifuged to remove the supernatant, and then the cells were suspended in 100 μL of annexin V-binding buffer. The cell suspension was transferred to an FACS tube, and 5 μL of annexin V and 10 μL of PI solution were added. Subsequently, the FACS tube was left in a dark room at room temperature for 15 minutes. 400 μL of PBS was added to each FACS tube and analyzed by FACS in appropriate settings.

[6] = In vivo distribution (organ fluorescence, FOBI); details: FITC-labelled, tail vein, C57BL mouse
Description: Each of GL-FITC and bPEG-GL-FITC was dissolved in 1.5 mL of PBS at a concentration of 125 μg/mL based on GL. 100 μL each of the GL-FITC and bPEG-GL-FITC solutions was injected into the tail vein of a C57BL mouse. When a preset time (10 min, 30 min, 3 hr, 6 hr, and 24 hr) passed, the mice were sacrificed, organs were removed, and then fluorescence images were confirmed using FOBI.

[7] = In vivo pharmacokinetics (plasma, HPLC); details: intravenous, mouse, tail vein, 5 mg/kg GL
Description: 5 mg/kg of GL or 18 mg/kg of bPEG-GL (a GL equivalent amount of the GL-administered group) was injected into the tail vein of a mouse. The mouse was sacrificed at a designated time point after injection and blood was collected through cardiac puncture. The blood collection times were as follows: 1, 3, 5, 10, 30, 60, 120, 150, 360, 720, 1080, and 1440 min (n=4 at each time). The collected blood was centrifuged at 3000 rpm and 4° C. for 20 minutes. Only the plasma, which is the supernatant, was recovered, and 50 μL of the plasma and 100 μL of methyl alcohol (HPLC grade) were mixed and vortexed for 10 minutes. Afterward, the resulting product was centrifuged at 10000 g for 10 minutes. 100 μL of the supernatant was mixed with 900 μL of a mobile phase, and the resulting mixture was filtered using a 0.45 μm syringe filter.
The mobile phase consisted of methanol, acetonitrile, water, and acetic acid in a ratio of 55:23.7:19.2:0.68. The standard curve required for HPLC analysis was prepared as follows: each of 1 mg of GL and 1.8 mg of bPEG-GL was dissolved in 1 mL of the mouse serum. […] HPLC was performed on the blood samples and various concentrations of the GL/serum solutions using a C8 reverse column: flow rate: 1 mL/min; column temperature: 35° C.; UV absorbance: 251 nm; and sample injection amount: 20 μL.

size by dynamic light scattering particle size analyzer [1]: 50 nm
DLS size, first listed population ([1]; 30 min): 159.7 nm
DLS size, second listed population ([1]; 30 min): 10.38 nm
proportion of first listed population ([1]; 30 min): 75.50%
proportion of second listed population ([1]; 30 min): 24.15%
DLS size, first listed population ([1]; 1 h): 54.5 nm
DLS size, second listed population ([1]; 1 h): 295.03 nm
proportion of first listed population ([1]; 1 h): 47.83%
proportion of second listed population ([1]; 1 h): 31.06%
size of newly observed particles ([1]; DW with 10% FBS, after 1 hour): approximately 300 nm
half-life [7]: ~4 min
SMILES: CC1(C)[C@@H](O[C@H]2O[C@H](C(=O)O)[C@@H](O)[C@H](O)[C@H]2O[C@@H]2O[C@H](C(=O)O)[C@@H](O)[C@H](O)[C@H]2O)CC[C@]2(C)[C@H]3C(=O)C=C4[C@@H]5C[C@@](C)(C(=O)O)CC[C@]5(C)CC[C@@]4(C)[C@]3(C)CC[C@@H]12 [GL, Glycyrrhizin]
toxicity to blood cells (hemolysis) [2]: did not exhibit toxicity to blood cells
width of wound / cell migration [3]: inhibitory effect on cell migration
cell cycle phase compared to control ([4]; HepG2, 250 and 500 μg/mL (GL equivalent)): cell cycles remained in the G0/G1 phase compared to the control
concentration dependence of cell cycle arrest ([4]; HepG2, 500 vs 250 μg/mL): higher cell cycle arrest effects at 500 μg/mL, compared to that at 250 μg/mL
proportion of apoptotic cells ([5]; HepG2, GL equivalent concentration of 500 μg/mL): 9.63%
proportion of apoptotic cells ([5]; HepG2, GL equivalent concentration of 1 mg/mL): 10.86%
organ fluorescence ([6]; 10 minutes after injection): fluorescence was visible in the liver and kidney
organ fluorescence ([6]; later time points up to 24 hr): no fluorescence was observed in the corresponding organs at later time points
